Earlier results as cited in patent US20220154222A1, “NOVEL NUCLEIC ACID MODIFIERS” (THE BROAD INSTITUTE, INC., priority 2019, published 2022).

Test system: Factor VII gene silencing in hepatocytes
Conditions: LNP siRNA systems containing the ionizable cationic lipid; hepatocytes in vivo

Compound	gene silencing potency, rank order of the series
1,2-dilinoleyloxy-keto-N,N-dimethyl-3-aminopropane [DLinKDMA]	DLinKC2-DMA>DLinKDMA>DLinDMA>>DLinDAP
CCCCC/C=C\C/C=C\CCCCCCCC(=O)OCC(CN(C)C)OC(=O)CCCCCCC/C=C\C/C=C\CCCCC (stereo not shown) [DLinDAP, 1,2-dilineoyl-3-dimethylammonium-propane]	DLinKC2-DMA>DLinKDMA>DLinDMA>>DLinDAP
CCCCC/C=C\C/C=C\CCCCCCCCOCC(CN(C)C)OCCCCCCCC/C=C\C/C=C\CCCCC (stereo not shown) [DLinDMA, 1,2-dilinoleyloxy-3-N,N-dimethylaminopropane]	DLinKC2-DMA>DLinKDMA>DLinDMA>>DLinDAP
CCCCC/C=C\C/C=C\CCCCCCCCC1(CCCCCCCC/C=C\C/C=C\CCCCC)OCC(CCN(C)C)O1 (stereo not shown) [DLinKC2-DMA, 1,2-dilinoleyl-4-(2-dimethylaminoethyl)-[1,3]-dioxolane]	DLinKC2-DMA>DLinKDMA>DLinDMA>>DLinDAP
